The text below walks through data of US20260076893A1, “SELF-FOAMING CLEANSING COMPOSITION” (Conopco, Inc., d/b/a UNILEVER, priority 2022, published 2026).

Assay [1] concerns CASP14. Description: Living skin equivalent assay, CASP14 gene expression. In kind it is cell-based. As to the method: (§1) In the following samples, compositions were made with varying levels of moringa seed oil and tested in a living skin equivalent assay. The base composition was tested with levels of 0.1% by weight, 0.2% by weight, and 0.3% by weight of moringa seed oil, based on the total weight of the self-foaming cleansing composition. The living skin equivalent assay study monitored gene expression of several markers after application of the test solutions to the living skin equivalent assay.
(§2) Comparative Example 1 was a non-treated control meaning no application on the skin model. Comparative Example 2 was another control where phosphate-buffered saline (PBS) was applied topically to the skin model.

The test system of assay [2] is AQP3. As to the kind of experiment: Living skin equivalent assay, AQP3 gene expression. Format: cell-based. The method, then:
as §1, §2

Assay [3] concerns IL-1a. Description: Living skin equivalent assay, IL-1a. In kind it is cell-based. The note with it: living skin equivalent after application of test solution. The method, then:
as §1, §2

Assay [4] in a line: DPPH scavenging method (antioxidation). In kind it is biochemical. The note with it: 0.25%, positive control, dilution not given. An excerpt: To add antioxidation properties to the self-foaming cleansing composition, tocopherol (Vitamin E) can be added. Antioxidation can be measured using a DPPH scavenging method where DPPH (1,1-Diphenyl-2-picrylhydrazyl) is a stable free radical. On accepting hydrogen from a corresponding donor, its solutions lose a characteristic deep purple color and antiradical activity of tested formulations can be expressed as a percentage decrease of DPPH concentration. […] Accordingly, in a further aspect, the invention relates to the use of tocopherol in a composition according to the invention to provide anti-oxidant activity to the cleansing composition, preferably dose-dependent anti-oxidant activity. The invention relates further to the use of tocopherol to reduce free radicals in a cleansing composition according to the invention, preferably dose-dependent anti-oxidant activity. In a further embodiment, it may be preferred that the cleansing composition of the invention comprises tocopherol and moringa seed oil.
The antioxidant activity of the formulations in Samples 4 and 5 were tested using the DPPH scavenging method (1,1-Diphenyl-2-picrylhydrazyl). DPPH is a stable free radical. […] The antiradical activity of Samples 4 and 5 was expressed as a percentage decrease of DPPH concentration.
For orientation: DPPH is a stable violet radical that fades when it is reduced.

squalene monoperoxide [SQOOH]: the “CASP14 (Fold change)” value in assay [1] is listed as 0.54 ± 0.31 Fold change. The “AQP3 (Fold change)” value in assay [2] was determined as 0.27 ± 0.04 Fold change. Also, the IL-1a in assay [3] is 483.84 ± 11.42 pg/mL.

On to `O=C1O[C@H]([C@@H](O)CO)C(O)=C1O` [Vitamin C], for which the “% Reduction over DPPH reagent control” value in assay [4] stood at 95.04%.
